This is an account of results in patent US9670227B2, “Thienopyrimidine derivatives, a process for their preparation and pharmaceutical compositions containing them” (LES LABORATOIRES SERVIER, priority 2013, dated 2017).

One assay has as its target Mcl-1 protein (UniProtKB primary accession number: Q07820) (Homo sapiens, UniProt Q07820). Description: Inhibition of Mcl-1 by fluorescence polarisation, Method 1. As to conditions: read-out: IC50 (M) Mcl-1 FP. The format is binding. A digest of the protocol: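 Fluorescence polarisation competition with an 11-point compound dilution series (final DMSO 5%). Mcl-1 protein at 5 nM and fluorescein-labelled ligand at 1 nM (final) in 10 mM HEPES, 150 mM NaCl, 0.05% Tween 20, pH 7.4.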

The test system of assay [1] is H929 multiple myeloma tumour line. Description: In vitro cytotoxicity, Microculture Tetrazolium Assay. As to conditions: Homo sapiens, NCI-H929, 48 h, H929 cells, 48 hours exposure, MTT; read-out: IC50 (μM) MTT H929. The format is cell-based. The procedure: The cytotoxicity studies were carried out on the H929 multiple myeloma tumour line.
The cells are distributed onto microplates and exposed to the test compounds for 48 hours.

Where [2] appears, read: fluorescence polarisation test, Method 2 values are underlined in the patent (underlining not visible here).
[3] abbreviates: fluorescence polarisation, Method 1, or Method 2.

Each structure is given as a SMILES string. Read-outs that look alike come from different tables or passages of the source.

Chain of Mcl-1 protein (Q07820 whole entry): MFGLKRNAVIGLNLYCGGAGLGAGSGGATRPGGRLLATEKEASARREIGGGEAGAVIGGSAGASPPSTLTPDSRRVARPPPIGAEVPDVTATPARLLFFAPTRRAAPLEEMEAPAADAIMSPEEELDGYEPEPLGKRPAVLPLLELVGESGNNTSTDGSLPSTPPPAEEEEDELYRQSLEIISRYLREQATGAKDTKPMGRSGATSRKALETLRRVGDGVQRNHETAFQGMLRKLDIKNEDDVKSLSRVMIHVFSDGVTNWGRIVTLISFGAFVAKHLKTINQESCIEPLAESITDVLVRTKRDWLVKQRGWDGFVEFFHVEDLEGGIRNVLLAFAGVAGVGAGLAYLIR

In general, IC50 refers to the concentration that inhibits the measured activity by half. In the case of `COCCOCCOc1ccccc1CC(Oc1ncnc2sc(-c3ccc(F)o3)c(-c3ccc(OCCN4CCN(C)CC4)c(Cl)c3C)c12)C(=O)O` [Example 196, (2R)-2-{[(5Sa)-5-{3-chloro-2-methyl-4-[2-(4-methylpiperazin-1-yl)ethoxy]phenyl}-6-(5-fluorofuran-2-yl)thieno[2,3-d]pyrimidin-4-yl]oxy}-3-{2-[2-(2-methoxyethoxy)ethoxy]phenyl}propanoic acid], the IC50 was 5.6e-09 M on Mcl-1 protein (setting [2]) and 0.076 µM in assay [1].
For `COc1ccccc1CC(Oc1ncnc2sc(-c3ccc(C#N)o3)c(-c3ccc(OCCN4CCN(C)CC4)c(Cl)c3C)c12)C(=O)O` [Example 579, (2R)-2-{[(5Sa)-5-{3-chloro-2-methyl-4-[2-(4-methylpiperazin-1-yl)ethoxy]phenyl}-6-(5-cyanofuran-2-yl)thieno[2,3-d]pyrimidin-4-yl]oxy}-3-(2-methoxyphenyl)propanoic acid], the IC50 on Mcl-1 protein (setting [3]) amounted to 8.5e-09 M; in assay [1], 0.463 µM.
On to `COc1ccccc1CC(Oc1ncnc2sc(-c3ccco3)c(-c3ccc(OCCC4CCCN4C)c(Cl)c3C)c12)C(=O)O` [Example 316, (2R)-2-{[(5Sa)-5-{3-chloro-2-methyl-4-[2-(1-methylpyrrolidin-2-yl)ethoxy]phenyl}-6-(furan-2-yl)thieno[2,3-d]pyrimidin-4-yl]oxy}-3-(2-methoxyphenyl)propanoic acid], for which the IC50 worked out at 7.7e-09 M at Mcl-1 protein (setting [2]) and 1.46 µM in assay [1].
Take `Cc1c(-c2c(-c3ccc(F)o3)sc3ncnc(OC(Cc4ccccc4OCc4ccnc(C(F)(F)F)n4)C(=O)O)c23)ccc(OCCN(C)C)c1Cl` [Example 201, (2R)-2-{[(5Sa)-5-{3-chloro-4-[2-(dimethylamino)ethoxy]-2-methylphenyl}-6-(5-fluorofuran-2-yl)thieno[2,3-d]pyrimidin-4-yl]oxy}-3-(2-{[2-(trifluoromethyl)pyrimidin-4-yl]methoxy}phenyl)propanoic acid]: the 50% inhibitory concentration (IC50) at Mcl-1 protein (setting [2]) is 5.8e-09 M; in assay [1], 0.027 µM.
With `Cc1cc(-c2nccc(COc3ccccc3CC(Oc3ncnc4sc(-c5ccc(F)cc5)c(-c5ccc(OCCN(C)C)c(Cl)c5C)c34)C(=O)O)n2)c(C)cn1` [Example 751, (2R)-2-{[(5Sa)-5-{3-chloro-4-[2-(dimethylamino)ethoxy]-2-methylphenyl}-6-(4-fluorophenyl)thieno[2,3-d]pyrimidin-4-yl]oxy}-3-(2-{[2-(2,5-dimethylpyridin-4-yl)pyrimidin-4-yl]methoxy}phenyl)propanoic acid], the IC50 on Mcl-1 protein (setting [3]) was 9.48e-10 M; in assay [1], 0.008 µM.
Take `COCCOCCOc1ccccc1CC(Oc1ncnc2sc(-c3ccc(F)cc3)c(-c3ccc(OCCN4CCN(C)CC4)c(Cl)c3C)c12)C(=O)O` [Example 105, (2R)-2-{[(5Sa)-5-{3-chloro-2-methyl-4-[2-(4-methylpiperazin-1-yl)ethoxy]phenyl}-6-(4-fluorophenyl)thieno[2,3-d]pyrimidin-4-yl]oxy}-3-{2-[2-(2-methoxyethoxy)ethoxy]phenyl}propanoic acid]: the IC50 at Mcl-1 protein (setting [2]) was 1.2e-08 M; in assay [1], 0.251 µM.
Take `CC#Cc1sc2ncnc(OC(Cc3ccccc3OCc3ccnc(CCOC)n3)C(=O)O)c2c1-c1ccc(OCCN2CCN(C)CC2)c(Cl)c1C` [Example 484, (2R)-2-{[(5Sa)-5-{3-chloro-2-methyl-4-[2-(4-methylpiperazin-1-yl)ethoxy]phenyl}-6-(prop-1-yn-1-yl)thieno[2,3-d]pyrimidin-4-yl]oxy}-3-(2-{[2-(2-methoxyethyl)pyrimidin-4-yl]methoxy}phenyl)propanoic acid]: the IC50 came out at 3.4e-09 M at Mcl-1 protein (setting [3]) and 0.014 µM in assay [1].
Turning to `Cc1c(-c2c(-c3ccco3)sc3ncnc(OC(Cc4ccccc4OCc4ccccc4)C(=O)O)c23)ccc(OCCN2CCN(C)CC2)c1Cl` [Example 240, (2R)-3-[2-(benzyloxy)phenyl]-2-{[(5Sa)-5-{3-chloro-2-methyl-4-[2-(4-methylpiperazin-1-yl)ethoxy]phenyl}-6-(furan-2-yl)thieno[2,3-d]pyrimidin-4-yl]oxy}propanoic acid], the IC50 was 7.2e-09 M on Mcl-1 protein (setting [2]) and 0.225 µM in assay [1].
On the same counts, the results for `Cc1c(-c2c(-c3ccc(F)cc3)sc3ncnc(OC(Cc4ccccc4OCc4ccnn4-c4ccccc4)C(=O)O)c23)ccc(OCCN2CCN(C)CC2)c1Cl` [Example 74, (2R)-2-{[(5Sa)-5-{3-chloro-2-methyl-4-[2-(4-methylpiperazin-1-yl)ethoxy]phenyl}-6-(4-fluorophenyl)thieno[2,3-d]pyrimidin-4-yl]oxy}-3-{2-[(1-phenyl-1H-pyrazol-5-yl)methoxy]phenyl}propanoic acid] are 1.6e-08 M and 0.365 µM.
Take `CC#Cc1sc2ncnc(OC(Cc3ccccc3OC)C(=O)O)c2c1-c1ccc(OCCN(C)C)c(Cl)c1C` [Example 467, (2R)-2-{[(5Sa)-5-{3-chloro-4-[2-(dimethylamino)ethoxy]-2-methylphenyl}-6-(prop-1-yn-1-yl)thieno[2,3-d]pyrimidin-4-yl]oxy}-3-(2-methoxyphenyl)propanoic acid]: the values for the IC50 (at Mcl-1 protein (setting [3]); in assay [1]) were 1.1e-08 M and 0.502 µM, respectively.
On the same counts, the results for `CCCCn1nccc1COc1ccccc1CC(Oc1ncnc2sc(-c3cccnc3)c(-c3ccc(OCCN4CCN(C)CC4)c(Cl)c3C)c12)C(=O)O` [Example 609, (2R)-3-{2-[(1-butyl-1H-pyrazol-5-yl)methoxy]phenyl}-2-{[(5Sa)-5-{3-chloro-2-methyl-4-[2-(4-methylpiperazin-1-yl)ethoxy]phenyl}-6-(pyridin-3-yl)thieno[2,3-d]pyrimidin-4-yl]oxy}propanoic acid] are 3.5e-09 M and 0.063 µM.
For the compound `COc1ccccc1CC(Oc1ncnc2sc(-c3ccccc3Cl)c(-c3ccc(OCCN4CCN(C)CC4)c(Cl)c3C)c12)C(=O)O` [Example 565, (2R)-2-{[(5Sa)-5-{3-chloro-2-methyl-4-[2-(4-methylpiperazin-1-yl)ethoxy]phenyl}-6-(2-chlorophenyl)thieno[2,3-d]pyrimidin-4-yl]oxy}-3-(2-methoxyphenyl)propanoic acid], the IC50 on Mcl-1 protein (setting [3]) came out at 4.8e-07 M; in assay [1], 1.96 µM.
As to `Cc1c(-c2c(-c3ccco3)sc3ncnc(OC(Cc4ccccc4OCc4ccncn4)C(=O)O)c23)ccc(OCCN2CCN(C)CC2)c1Cl` [Example 259, (2R)-2-{[(5Sa)-5-{3-chloro-2-methyl-4-[2-(4-methylpiperazin-1-yl)ethoxy]phenyl}-6-(furan-2-yl)thieno[2,3-d]pyrimidin-4-yl]oxy}-3-[2-(pyrimidin-4-ylmethoxy)phenyl]propanoic acid], the IC50 came out at 5.2e-09 M at Mcl-1 protein (setting [2]) and 0.07 µM in assay [1].
In the case of `Cc1c(-c2c(-c3ccn(C)n3)sc3ncnc(OC(Cc4ccccc4)C(=O)O)c23)ccc(OCCN2CCN(C)CC2)c1Cl` [Example 506, (2R)-2-{[(5Sa)-5-{3-chloro-2-methyl-4-[2-(4-methylpiperazin-1-yl)ethoxy]phenyl}-6-(1-methyl-1H-pyrazol-3-yl)thieno[2,3-d]pyrimidin-4-yl]oxy}-3-phenylpropanoic acid], the values for the IC50 (at Mcl-1 protein (setting [3]); in assay [1]) were 7.5e-08 M and 8.29 µM, respectively.
Take `COc1ccccc1CC(Oc1ncnc2sc(-c3cccc(OCc4ccncc4)c3)c(-c3ccc(OCCN4CCN(C)CC4)c(Cl)c3C)c12)C(=O)O` [Example 587, (2R)-2-[((5Sa)-5-{3-chloro-2-methyl-4-[2-(4-methylpiperazin-1-yl)ethoxy]phenyl}-6-[3-(pyridin-4-ylmethoxy)phenyl]thieno[2,3-d]pyrimidin-4-yl)oxy]-3-(2-methoxyphenyl)propanoic acid]: the results for the IC50 (on Mcl-1 protein (setting [3]); in assay [1]) were 2.6e-08 M and 0.539 µM, respectively.
On to `Cc1c(-c2c(-c3ccc(F)o3)sc3ncnc(OC(Cc4ccccc4OCc4ccnc(OCC(F)(F)F)n4)C(=O)O)c23)ccc(OCCN(C)C)c1Cl` [Example 203, (2R)-2-{[(5Sa)-5-{3-chloro-4-[2-(dimethylamino)ethoxy]-2-methylphenyl}-6-(5-fluorofuran-2-yl)thieno[2,3-d]pyrimidin-4-yl]oxy}-3-(2-{[2-(2,2,2-trifluoroethoxy)pyrimidin-4-yl]methoxy}phenyl)propanoic acid], for which the IC50 on Mcl-1 protein (setting [2]) was 9.1e-09 M; in assay [1], 0.005 µM.
Consider `CC#Cc1sc2ncnc(OC(Cc3ccccc3OC)C(=O)O)c2c1-c1ccc(OCCN(C(C)C)C(C)C)c(Cl)c1C` [Example 466, (2R)-2-{[(5Sa)-5-(3-chloro-4-{2-[di(propan-2-yl)amino]ethoxy}-2-methylphenyl)-6-(prop-1-yn-1-yl)thieno[2,3-d]pyrimidin-4-yl]oxy}-3-(2-methoxyphenyl)propanoic acid], for which the figures for the IC50 (at Mcl-1 protein (setting [3]); in assay [1]) were 3.9e-08 M and 3.35 µM, respectively.
Take `COc1ccccc1CC(Oc1ncnc2sc(-c3cnco3)c(-c3ccc(OCCN4CCN(C)CC4)c(Cl)c3C)c12)C(=O)O` [Example 569, (2R)-2-{[(5Sa)-5-{3-chloro-2-methyl-4-[2-(4-methylpiperazin-1-yl)ethoxy]phenyl}-6-(1,3-oxazol-5-yl)thieno[2,3-d]pyrimidin-4-yl]oxy}-3-(2-methoxyphenyl)propanoic acid]: the IC50 at Mcl-1 protein (setting [3]) is 3.9e-08 M; in assay [1], 1.73 µM.
Regarding `COc1ccccc1-c1nccc(COc2ccccc2CC(Oc2ncnc3sc(-c4ccc(OCc5ccn(C)n5)cc4)c(-c4ccc(OCCN5CCN(C)CC5)c(Cl)c4C)c23)C(=O)O)n1` [Example 776, (2R)-2-[((5Sa)-5-{3-chloro-2-methyl-4-[2-(4-methylpiperazin-1-yl)ethoxy]phenyl}-6-{4-[(1-methyl-1H-pyrazol-3-yl)methoxy]phenyl}thieno[2,3-d]pyrimidin-4-yl)oxy]-3-(2-{[2-(2-methoxyphenyl)pyrimidin-4-yl]methoxy}phenyl)propanoic acid], the results for the IC50 (on Mcl-1 protein (setting [3]); in assay [1]) were 9.48e-10 M and 0.007 µM, respectively.
